US20260250257A1, “ANTIBACTERIAL AND SYNERGISTIC ACTIVE COMPOUND AND USE THEREOF” (EAST CHINA UNIVERSITY OF SCIENCE AND TECHNOLOGY, priority 2023, published 2026)

What was measured:
Format in all cases: cell-based
[1] = system: ATCC13883 strain (Klebsiella pneumoniae); assay: Checkerboard antibacterial synergistic activity test with polymyxin E (FIC); parameters: key: FIC≤0.5 synergy; 0.5–1 additive; 1–2 indifferent; ≥2 antagonism; conditions: combined with polymyxin E
In short: (§1)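 Broth checkerboard synergy with colistin; listed dilutions are working solutions, not final well levels. Overnight incubation, 16 h at 37° C.; FIC ≤0.5 denotes synergy, ≥2 antagonism.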

[2] = system: ATCC19606 strain (Acinetobacter baumannii); assay: as above; parameters: key: FIC≤0.5 synergy; 0.5–1 additive; 1–2 indifferent; ≥2 antagonism; conditions: combined with polymyxin E
In short: as §1

[3] = system: ATCC25922 strain (Escherichia coli); assay: as above; parameters: key: FIC≤0.5 synergy; 0.5–1 additive; 1–2 indifferent; ≥2 antagonism; conditions: combined with polymyxin E
In short: as §1

[4] = system: ATCC9027 strain (Pseudomonas aeruginosa); assay: as above; parameters: key: FIC≤0.5 synergy; 0.5–1 additive; 1–2 indifferent; ≥2 antagonism; conditions: combined with polymyxin E
In short: as §1

[5] = system: ATCC13883 strain (Klebsiella pneumoniae); assay: Broth microdilution, antibacterial activity of the compound used alone
Description: (§2) The broth microdilution method was used to test the antibacterial effects of the compounds of the present invention against various Gram-negative bacterial strains when used alone.

[6] = system: ATCC19606 strain (Acinetobacter baumannii); assay: as above
Description: as §2

[7] = system: ATCC25922 strain (Escherichia coli); assay: as above
Description: as §2

[8] = system: ATCC9027 strain (Pseudomonas aeruginosa); assay: as above
Description: as §2

SMILES | Synergistic activity (FIC value) ATCC13883 [1] | Synergistic activity (FIC value) ATCC19606 [2] | Synergistic activity (FIC value) ATCC25922 [3] | Synergistic activity (FIC value) ATCC9027 [4] | Antibacterial activity of the compound of Formula I, ATCC13883 [5] | Antibacterial activity of the compound of Formula I, ATCC19606 [6] | Antibacterial activity of the compound of Formula I, ATCC25922 [7] | Antibacterial activity of the compound of Formula I, ATCC9027 [8]
CCc1sc(N=C2NCCCN2)nc1-c1cc(C)c(F)c(C)c1 [Compound I-172] | 0.52 | 0.52 | 0.63 | 1.25 | 128 µg/mL | 256 µg/mL | 128 µg/mL | 64 µg/mL
Cc1cc(-c2csc(N=C3NCCCN3)n2)cc(C)c1O [Compound I-173] | 0.38 | 0.75 | 0.5 | 0.63 | 256 µg/mL | 256 µg/mL | 256 µg/mL | 256 µg/mL
N#Cc1ccc(-c2csc(N=C3NCCCN3)n2)c(Br)c1 [Compound I-174] | 0.52 | 0.52 | 0.63 | 1.25 | 256 µg/mL | 256 µg/mL | 256 µg/mL | 256 µg/mL
Clc1sc(N=C2NCCCN2)nc1-c1cccc(Br)c1 [Compound I-175] | 1.25 | 0.5 | 1.25 | 1.25 | 256 µg/mL | 256 µg/mL | 256 µg/mL | 256 µg/mL
O=[N+]([O-])c1cc(-c2nc(N=C3NCCCN3)sc2Br)ccc1Br [Compound I-176] | 0.31 | 0.13 | 0.38 | 0.53 | 256 µg/mL | 256 µg/mL | 256 µg/mL | 256 µg/mL
Fc1sc(N=C2NCCCN2)nc1-c1cc(Br)cc(Br)c1 [Compound I-177] | 1.25 | 0.5 | 0.63 | 1.25 | 256 µg/mL | 256 µg/mL | 256 µg/mL | 256 µg/mL
Oc1c(Br)cc(-c2coc(N=C3NCCCN3)n2)cc1Br [Compound I-178] | 1.25 | 0.51 | 1.25 | 1.25 | 256 µg/mL | 256 µg/mL | 256 µg/mL | 256 µg/mL
Ic1ccccc1-c1c[nH]c(N=C2NCCCN2)n1 [Compound I-179] | 1.25 | 1.25 | 1.25 | 0.51 | 128 µg/mL | 256 µg/mL | 128 µg/mL | 64 µg/mL
Ic1cccc(-c2csc(N=C3NCCCN3)n2)c1 [Compound I-180] | 1.25 | 0.26 | 1.25 | 1.25 | 256 µg/mL | 256 µg/mL | 256 µg/mL | 256 µg/mL
Ic1ccc(-c2csc(N=C3NCCCN3)n2)cc1 [Compound I-181] | 0.19 | 0.13 | 0.52 | 1.25 | 256 µg/mL | 256 µg/mL | 256 µg/mL | 256 µg/mL
Cc1sc(N=C2NCCCN2)nc1-c1cc(I)cc(I)c1 [Compound I-182] | 0.31 | 0.25 | 0.56 | 0.5 | 256 µg/mL | 256 µg/mL | 256 µg/mL | 256 µg/mL
Oc1c(I)cc(-c2nc(N=C3NCCCN3)sc2Cl)cc1I [Compound I-183] | 1.25 | 0.25 | 1.25 | 0.52 | 256 µg/mL | 256 µg/mL | 256 µg/mL | 256 µg/mL
Clc1cccc(-c2csc(N=C3NCCCN3)n2)c1Cl [Compound I-184] | 0.25 | 0.28 | 0.5 | 0.63 | 256 µg/mL | 256 µg/mL | 256 µg/mL | 256 µg/mL
Clc1cccc(-c2nc(N=C3NCCCN3)sc2Br)c1 [Compound I-185] | 1.25 | 0.75 | 1.25 | 1.25 | 256 µg/mL | 256 µg/mL | 256 µg/mL | 256 µg/mL
FC(F)(F)c1cc(-c2nc(N=C3NCCCN3)sc2Cl)ccc1Cl [Compound I-186] | 0.19 | 0.13 | 0.52 | 1.25 | 256 µg/mL | 256 µg/mL | 256 µg/mL | 256 µg/mL
